The values below come from PubChem BioAssay (NCI).

Among the test systems are ACHN renal; SK-MEL-2 melanoma; OVCAR-5 ovarian; MALME-3M melanoma; NCI-H23 lung; OVCAR-3 ovarian; MDA-MB-435; HS 578T breast; BT-549 breast.
What all share (test): inhibition of tumour cell growth, NCI panel, 48 h

Structures are written as SMILES.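 Five concentrations, 48 hours, 96-well plates. Abbreviation: GI50, concentration required for 50% inhibition of growth. TGI is the concentration that stops growth completely.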 Where only a bound is given, the exact number is not on record here.

On to `[O-]c1c2c(nn1-c1ccccc1)c1ccccc1c[n+]2Cc1ccccc1`, for which the TGI in the assay with ACHN renal, in the assay with SK-MEL-2 melanoma, in the assay on OVCAR-5 ovarian, in the assay with MALME-3M melanoma, in the assay on NCI-H23 lung and in the assay with OVCAR-3 ovarian was greater than 100 µM throughout.
In the case of `Cc1ccc(NC(=O)CCC(CC(=O)C(C)(C)C)=NNC(=O)C(=O)NN)cc1C`, the TGI in the assay with ACHN renal, in the assay on SK-MEL-2 melanoma, with OVCAR-5 ovarian, in the assay with MALME-3M melanoma, in the assay with NCI-H23 lung and in the assay with OVCAR-3 ovarian was greater than 100 µM in each case.
With `O=S(=O)(O)O.[NH-]C1CCCCC1[NH-].[Pt+2]` (stereo unspecified), the GI50 in the assay with ACHN renal is 47.8 µM; in the assay on SK-MEL-2 melanoma, greater than 100 µM; with OVCAR-5 ovarian it was greater than 100 µM; in the assay with MALME-3M melanoma, 50.2 µM; with NCI-H23 lung, greater than 100 µM; with OVCAR-3 ovarian it was greater than 100 µM. For the same compound, the TGI in the assay on ACHN renal, in the assay with SK-MEL-2 melanoma, with OVCAR-5 ovarian, with MALME-3M melanoma, in the assay on NCI-H23 lung and in the assay with OVCAR-3 ovarian was greater than 100 µM in each case.
Take `O=c1/c(=C/c2cccc([N+](=O)[O-])c2)sc2nc3ccccc3n12`: the TGI in the assay on ACHN renal, in the assay on SK-MEL-2 melanoma, in the assay on OVCAR-5 ovarian, in the assay with MALME-3M melanoma and with NCI-H23 lung was greater than 100 µM each time.
Take `CCOC(=O)C12CCCC1(O)N(NC(=O)c1ccccc1)C(C)=C2C(=O)OC` (stereo unspecified): the TGI with ACHN renal, with SK-MEL-2 melanoma, with OVCAR-5 ovarian, in the assay with MALME-3M melanoma, with NCI-H23 lung and in the assay with OVCAR-3 ovarian was greater than 100 µM throughout.
Consider `COC(=O)C1=C2CCC(=O)[C@@]2(C)C(OC(C)=O)C=CC1` (stereo partly specified), for which the TGI in the assay with ACHN renal, with SK-MEL-2 melanoma, with OVCAR-5 ovarian, in the assay with MALME-3M melanoma, in the assay on NCI-H23 lung and with OVCAR-3 ovarian was greater than 100 µM throughout.
For the compound `Cc1[nH]c2ccccc2c1C1Cc2ccccc2N1C(=O)/C=C/C=C/c1ccccc1` (stereo unspecified), the TGI in the assay on ACHN renal, in the assay with SK-MEL-2 melanoma, in the assay on OVCAR-5 ovarian, in the assay with MALME-3M melanoma, in the assay with NCI-H23 lung and in the assay on OVCAR-3 ovarian was greater than 100 µM each time.
For the compound `CCOC12OC3=C(CC1CC1=C(CCC1=O)O2)C(=O)CC3` (stereo unspecified), the TGI with SK-MEL-2 melanoma, in the assay with OVCAR-5 ovarian, in the assay on MALME-3M melanoma, with NCI-H23 lung and with OVCAR-3 ovarian was greater than 100 µM throughout.
Turning to `Cc1cc(NS(=O)(=O)c2ccc(N=Nc3cc(N=Nc4ccc(S(=O)(=O)Nc5cc(C)nc(C)n5)cc4)c4c(NC(=O)C(Cl)Cl)cccc4c3OC(=O)C(Cl)Cl)cc2)nc(C)n1` (tested in a mixture with another compound), the TGI in the assay on ACHN renal worked out at 56.7 µM; in the assay with SK-MEL-2 melanoma, 81.1 µM; in the assay with OVCAR-5 ovarian, 30.6 µM; with MALME-3M melanoma, 40.8 µM; in the assay on NCI-H23 lung, 78.3 µM; in the assay with OVCAR-3 ovarian, 33 µM.
In the case of `CS(=O)(=O)NNS(=O)(=O)c1cccc([N+](=O)[O-])c1`, the TGI in the assay on ACHN renal, in the assay on SK-MEL-2 melanoma, in the assay on MALME-3M melanoma and in the assay with NCI-H23 lung was greater than 100 µM in each case.
On to `O=c1cccccc1NCCOCCNc1cccccc1=O`, for which the TGI in the assay on ACHN renal, in the assay on SK-MEL-2 melanoma, with OVCAR-5 ovarian, in the assay on MALME-3M melanoma, in the assay on NCI-H23 lung and in the assay with OVCAR-3 ovarian was greater than 100 µM in each case.
As for `C=CCCC(OCOCCOC)c1cc(C)c(O[Si](C)(C)C(C)(C)C)c(C)c1` (stereo unspecified), the TGI came out at 26.7 µM with ACHN renal; 30.8 µM with SK-MEL-2 melanoma; 32.4 µM with OVCAR-5 ovarian; 41.4 µM in the assay with MALME-3M melanoma; 31.5 µM in the assay with NCI-H23 lung; 27.7 µM in the assay with OVCAR-3 ovarian.
In the case of `CC1(C)COC(C23C4C5C2C2C3C4C52I)=N1` (stereo unspecified), the TGI in the assay on ACHN renal, in the assay on OVCAR-5 ovarian, with MALME-3M melanoma, in the assay on NCI-H23 lung and in the assay with OVCAR-3 ovarian was greater than 100 µM in each case.
For the compound `Nc1nc(N)c(N=O)c(Nc2ccc(O)cc2)n1`, the TGI with MDA-MB-435 was greater than 100 µM; with HS 578T breast, 58.8 µM; in the assay on ACHN renal, greater than 86.1 µM; with SK-MEL-2 melanoma, greater than 100 µM; with OVCAR-5 ovarian, greater than 26.1 µM; with MALME-3M melanoma it was greater than 100 µM. The TGI was greater than 100 µM in the assay on NCI-H23 lung, greater than 82.9 µM with BT-549 breast and greater than 100 µM in the assay with OVCAR-3 ovarian.
As for `C/C(=C\C(C)COCc1ccccc1)[C@H](COCc1ccccc1)OCc1ccccc1` (stereo partly specified), the TGI in the assay on ACHN renal, in the assay with SK-MEL-2 melanoma, with OVCAR-5 ovarian, with NCI-H23 lung and in the assay on OVCAR-3 ovarian was greater than 100 µM throughout.
For the compound `CC(=O)[CH-]C(=O)c1ccccc1.CC(=O)[CH-]C(=O)c1ccccc1.CC[O-].CC[O-].[Zr+4]`, the GI50 in the assay with ACHN renal, in the assay on SK-MEL-2 melanoma, with OVCAR-5 ovarian, in the assay with MALME-3M melanoma, in the assay on NCI-H23 lung and in the assay on OVCAR-3 ovarian was greater than 100 µM each time. The TGI with ACHN renal, in the assay on SK-MEL-2 melanoma, in the assay on OVCAR-5 ovarian, in the assay on MALME-3M melanoma, with NCI-H23 lung and in the assay with OVCAR-3 ovarian was greater than 100 µM in each case.
As to `COc1ccc2c(=O)c(C)c(-c3ccccc3)oc2c1CN(C)C`, the TGI in the assay with ACHN renal, in the assay on OVCAR-5 ovarian, with MALME-3M melanoma, with NCI-H23 lung and in the assay with OVCAR-3 ovarian was greater than 100 µM each time.
Take `COc1ccc(C(=O)OCC2OC(n3cnc4c(=S)nc[nH]c43)C(OC(=O)c3ccc(OC)cc3)C2OC(=O)c2ccc(OC)cc2)cc1` (stereo unspecified): the TGI in the assay on ACHN renal, with SK-MEL-2 melanoma, in the assay with OVCAR-5 ovarian, in the assay with MALME-3M melanoma, in the assay with NCI-H23 lung and with OVCAR-3 ovarian was greater than 100 µM each time.
